Source: publication PMC10381309 (Journal of Fungi, 2023)
≈ marks a conversion by molar mass, not a printed value. Where two headings read alike, the source gives them in different places. One block for each compound: values may come before it.

How the values were obtained:
[1] = system: Fonsecaea pedrosoi (CFP 00791); assay: NIH Clinical Collection screening for antifungal activity (growth inhibition, OD 530 nm); type: cell-based; conditions: 10 µM, CFP00791 Fonsecaea pedrosoi isolate, 72–96 h; for inhibition at 10 µM: read-out: % Growth Inhibition
Method: These substances are part of the NIH Roadmap Molecular Libraries Screening Centers Network screening library, a collection of chemically diverse substances in Phase I-III clinical trials. Each substance was initially diluted to 1 mM in DMSO and stored at −20 °C until use. […] The final DMSO concentration corresponded to 0.5% v/v. The inoculum was prepared according to the protocol for filamentous fungi proposed by the European Committee on Antimicrobial Susceptibility Testing—EUCAST, with minor modifications. […] After growth, conidia were suspended in 3 mL of sterile distilled water with 0.1% Tween 20, vortexed, and the concentration adjusted to the 0.5 McFarland scale. The suspension was then diluted 1:10 in order to obtain a final working inoculum at 2–5 × 10^5 CFU/mL. Next, 100 µL of the inoculum was added to each well and the plates incubated at 35 °C for 72–96 h. Negative and positive controls consisted of culture medium alone and drug-free culture medium with the fungal inoculum previously described, respectively. Plates were read using a microplate reader (Epoch, Biotek, Wenusky, VT, USA) with a 530 nm filter to obtain the optical density. All plates were also visually read to confirm the equipment data. A calculation was performed to obtain the percentage of inhibition of fungal growth, according to the formula: (1 − (OD1/OD2)) × 100, where OD1 = optical density of the fungus in the presence of the drug; and OD2 = optical density of the growth control drug-free well.

[2] = system: different species that cause CBM; assay: MIC determination of hit drugs, stated over the panel of CBM agents; type: cell-based
Excerpt: In this study, eight fungal isolates obtained from the Fiocruz Pathogenic Fungi Collection (CFP) and the American Type Culture Collection (ATCC®) were used. Fonsecaea pedrosoi (CFP 00791) was used throughout the study. This species is one of the main CBM agents worldwide. Cladophialophora carrionii (CFP 00910), Phialophora verrucosa (CFP 00937), Fonsecaea monophora (CFP 00911), Fonsecaea nubica (CFP 00912), Rhinocladiela similis (CFP 00790), Exophiala heteromorpha (ATCC® 28180), and Exophiala dermatitidis (ATCC® 28869) were used to determine the minimum inhibitory concentration (MIC) and in synergism assays. Strains were maintained on potato dextrose agar (PDA) (Sigma Chemical Corporation, St. Louis, MO, USA). Seven-day cultures incubated at 30 °C were used in the assays.
(§1) Minimum inhibitory concentrations (MICs) were determined using the method proposed by the European Committee on Antimicrobial Susceptibility Testing (EUCAST), with minor modifications. Hit drugs were serially diluted (80 μM to 0.15625 μM) in RPMI 1640 (twice concentrated, pH 7; supplemented with 2% glucose) buffered with MOPS in 96-well plates. The inoculums of all strains were prepared following the EUCAST protocol. Plates were incubated at 35 °C for 72–96 h. The MIC of the NCC substances was determined as the lowest concentration capable of inhibiting 100% of fungal growth when compared to the growth control well. MIC values were determined in duplicate.

[3] = system: Fonsecaea nubica (CFP 00912); assay: MIC determination (EUCAST, minor modifications); type: cell-based; conditions: F. nubica; for MIC: 100% growth inhibition, read-out: MIC
Method: as §1

[4] = system: Cladophialophora carrionii (CFP 00910); assay: MIC determination (EUCAST, minor modifications); type: cell-based; conditions: C. carrionii
Method: as §1

[5] = system: Exophiala dermatitidis (ATCC 28869); assay: MIC determination (EUCAST, minor modifications); type: cell-based; conditions: E. dermatitidis
Method: as §1

[6] = system: Exophiala heteromorpha (ATCC 28180); assay: MIC determination (EUCAST, minor modifications); type: cell-based; conditions: E. heteromorpha
Method: as §1

[7] = system: Fonsecaea monophora (CFP 00911); assay: MIC determination (EUCAST, minor modifications); type: cell-based; conditions: F. monophora
Method: as §1

[8] = system: Fonsecaea pedrosoi (CFP 00791); assay: MIC determination (EUCAST, minor modifications); type: cell-based; conditions: F. pedrosoi
Method: as §1

[9] = system: Phialophora verrucosa (CFP 00937); assay: MIC determination (EUCAST, minor modifications); type: cell-based; conditions: P. verrucosa
Method: as §1

[10] = system: Rhinocladiela similis (CFP 00790); assay: MIC determination (EUCAST, minor modifications); type: cell-based; conditions: R. similis
Method: as §1

[11] = system: Cladophialophora carrionii (CFP 00910); assay: Minimum fungicidal concentration determination; type: cell-based; conditions: C. carrionii
Method: The MFC was determined as the lowest drug concentration without fungal growth on Sabouraud agar after five days of incubation at 35 °C.

[12] = system: Exophiala dermatitidis (ATCC 28869); assay: Minimum fungicidal concentration determination; type: cell-based; conditions: E. dermatitidis
Method: (§2) Minimum fungicidal concentration (MFC) was determined in triplicate by transferring a 5 μL aliquot from each well without fungal growth of the microdilution plates used for MIC determination, as described above, onto 2% glucose Sabouraud agar (Sigma Chemical Corporation). The MFC was determined as the lowest drug concentration without fungal growth on Sabouraud agar after five days of incubation at 35 °C. When the MFC/MIC ratio of a hit drug was 1 or 2, the substance was considered fungicidal against the pathogen. If this ratio was greater than 2, the hit drug was considered to be fungistatic.

[13] = system: Exophiala heteromorpha (ATCC 28180); assay: Minimum fungicidal concentration determination; type: cell-based; conditions: E. heteromorpha
Method: as §2

[14] = system: Fonsecaea monophora (CFP 00911); assay: Minimum fungicidal concentration determination; type: cell-based; conditions: F. monophora
Method: as §2

[15] = system: Fonsecaea nubica (CFP 00912); assay: Minimum fungicidal concentration determination; type: cell-based; conditions: F. nubica
Method: as §2

[16] = system: Fonsecaea pedrosoi (CFP 00791); assay: Minimum fungicidal concentration determination; type: cell-based; conditions: F. pedrosoi
Method: as §2

[17] = system: Phialophora verrucosa (CFP 00937); assay: Minimum fungicidal concentration determination; type: cell-based; conditions: P. verrucosa
Method: as §2

[18] = system: Rhinocladiela similis (CFP 00790); assay: Minimum fungicidal concentration determination; type: cell-based; conditions: R. similis
Method: as §2

[19] = system: Cladophialophora carrionii (CFP 00910); conditions: C. carrionii; PDA; 7 days, 37 °C; albendazole at ½ MIC
Method: (§3) At the end of the seven days of incubation at 37 °C, the plates were read visually. The aspect of the colonies supplemented with albendazole were compared to those of the positive melanin and inhibition melanin controls, to determine whether the color of the albendazole-supplemented cultures resembled the positive DHN-melanin or the melanin inhibition control. Pictures of the colonies were captured using a Canon EOS Rebel T7+ digital camera.

[20] = system: Exophiala heteromorpha (ATCC 28180); conditions: E. heteromorpha; PDA; 7 days, 37 °C; albendazole at ½ MIC
Method: as §3

[21] = system: Fonsecaea pedrosoi (CFP 00791); conditions: F. pedrosoi; PDA; 7 days, 37 °C; albendazole at ½ MIC
Method: as §3

[22] = different species that cause CBM, highest concentration tested 80 µM, read-out: MIC

Compound: Nc1nc(=O)[nH]cc1F [5-Fluorocytosine]
inhibition at 10 µM [1]: 68%

Compound: O=c1[nH]cc(F)c(=O)[nH]1 [5-Fluorouracil]
inhibition at 10 µM [1]: 85%

Compound: CCCCCCNC(=O)n1cc(F)c(=O)[nH]c1=O [Carmofur]
inhibition at 10 µM [1]: 100%

MIC [2, 22]: > 80 µM
Compound: CN1C(=O)CC[C@H]1c1cccnc1 [Cotinine (nicotine), Cotinine]
inhibition at 10 µM [1]: 71%

Compound: Clc1ccc(COC(Cn2ccnc2)c2ccc(Cl)cc2Cl)cc1 (centres unmarked) [Econazole nitrate]
inhibition at 10 µM [1]: 94%

MIC ([2]; different species that cause CBM, highest concentration tested 80 µM): above 80 µM
Compound: C[C@H](N[C@@H](CCc1ccccc1)C(=O)O)C(=O)N1CCC[C@H]1C(=O)O [Enalaprilat]
% Growth Inhibition [1]: 67%

Compound: O=C(NCC1CCCCN1)c1cc(OCC(F)(F)F)ccc1OCC(F)(F)F (centres unmarked) [Flecainide Acetate]
inhibition at 10 µM [1]: 95%

MIC [3]: 0.3125 µM (≈ 0.0769 µg/mL)
MIC ([2]; CBM agents except the Fonsecaea nubica isolate, read-out: MIC): > 80 µM
Compound: O=c1[nH]c(=O)n([C@H]2C[C@H](O)[C@@H](CO)O2)cc1F [Floxuridine]
inhibition at 10 µM [1]: 86%

MIC [2, 22]: > 80 µM
Compound: CC(=O)NC[C@H]1CN(c2ccc(N3CCOCC3)c(F)c2)C(=O)O1 [Linezolid]
inhibition at 10 µM [1]: 87%

Compound: CN1CCCCC1CCN1c2ccccc2Sc2ccc([S+](C)[O-])cc21 (centres unmarked) [Mesoridazine (Serentil), Mesoridazine]
inhibition at 10 µM [1]: 86%

Compound: Clc1ccc(COC(Cn2ccnc2)c2ccc(Cl)cc2Cl)c(Cl)c1 (centres unmarked) [Miconazole nitrate]
inhibition at 10 µM [1]: 99%

MIC [2, 22]: > 80 µM
Compound: OCCN1C[C@H](O)[C@@H](O)[C@H](O)[C@H]1CO [Miglitol]
inhibition at 10 µM [1]: 90%

Compound: CN(C)CC/C=C1/c2ccccc2COc2ccc(CC(=O)O)cc21 [Olopatadine (Patanol), Olopatadine]
inhibition at 10 µM [1]: 85%

MIC [2, 22]: > 80 µM
Compound: COCCCOc1ccnc(C[S+]([O-])c2nc3ccccc3[nH]2)c1C (centres unmarked) [Rabeprazole]
inhibition at 10 µM [1]: 61%

MIC [2, 22]: 10 to 40 µM
Compound: CN[C@H]1CC[C@@H](c2ccc(Cl)c(Cl)c2)c2ccccc21 [Sertraline]

Compound: C=CC[C@@H]1/C=C(\C)C[C@H](C)C[C@H](OC)[C@H]2O[C@@](O)(C(=O)C(=O)N3CCCC[C@H]3C(=O)O[C@H](/C(C)=C/[C@@H]3CC[C@@H](O)[C@H](OC)C3)[C@H](C)[C@@H](O)CC1=O)[C@H](C)C[C@@H]2OC [Tacrolimus]
inhibition at 10 µM [1]: 89%

MIC ([4]; Cladophialophora carrionii, 100% growth inhibition, read-out: MIC): 5 µM (≈ 1.01 µg/mL)
MIC ([5]; Exophiala dermatitidis, ATCC28869, 100% growth inhibition, read-out: MIC): 10 µM (≈ 2.01 µg/mL)
MIC ([6]; Exophiala heteromorpha, ATCC28180, 100% growth inhibition, read-out: MIC): 10 µM (≈ 2.01 µg/mL)
MIC ([7]; Fonsecaea monophora, 100% growth inhibition, read-out: MIC): 5 µM (≈ 1.01 µg/mL)
MIC ([3]; Fonsecaea nubica): 5 µM (≈ 1.01 µg/mL)
MIC ([8]; Fonsecaea pedrosoi, 100% growth inhibition, read-out: MIC): 5 µM (≈ 1.01 µg/mL)
MIC ([9]; Phialophora verrucosa, 100% growth inhibition, read-out: MIC): 5 µM (≈ 1.01 µg/mL)
MIC ([10]; 100% growth inhibition, read-out: MIC): 10 µM (≈ 2.01 µg/mL)
Compound: c1ccc2[nH]c(-c3cscn3)nc2c1 [Thiabendazole]
inhibition at 10 µM [1]: 82%
Selectivity Index (SI) ([4]; CC50 Vero 24 h / MIC): 99.50
Selectivity Index (SI) ([5]; CC50 Vero 24 h / MIC): 49.75
Selectivity Index (SI) ([6]; CC50 Vero 24 h / MIC): 49.75
Selectivity Index (SI) ([7]; CC50 Vero 24 h / MIC): 99.50
Selectivity Index (SI) ([3]; CC50 Vero 24 h / MIC): 99.50
Selectivity Index (SI) ([8]; CC50 Vero 24 h / MIC): 99.50
Selectivity Index (SI) ([9]; CC50 Vero 24 h / MIC): 99.50
Selectivity Index (SI) ([10]; CC50 Vero 24 h / MIC): 49.75
MFC:MIC Ratio [11]: 1
fungicidal or fungistatic (MFC/MIC ratio) [11]: fungicidal (When the MFC/MIC ratio of a hit drug was 1 or 2, the substance was considered fungicidal)
MFC ([11]; Cladophialophora carrionii, read-out: MFC): 5 µM (≈ 1.01 µg/mL)
MFC:MIC Ratio [12]: 8
MFC ([12]; Exophiala dermatitidis, ATCC28869, read-out: MFC): 80 µM (≈ 16.1 µg/mL)
MFC:MIC Ratio [13]: 8
MFC ([13]; Exophiala heteromorpha, ATCC28180, read-out: MFC): 80 µM (≈ 16.1 µg/mL)
MFC:MIC Ratio [14]: 1
fungicidal or fungistatic (MFC/MIC ratio) [14]: fungicidal (When the MFC/MIC ratio of a hit drug was 1 or 2, the substance was considered fungicidal)
MFC ([14]; Fonsecaea monophora, read-out: MFC): 5 µM (≈ 1.01 µg/mL)
MFC:MIC Ratio [15]: 1
fungicidal or fungistatic (MFC/MIC ratio) [15]: fungicidal (When the MFC/MIC ratio of a hit drug was 1 or 2, the substance was considered fungicidal)
MFC ([15]; Fonsecaea nubica, read-out: MFC): 5 µM (≈ 1.01 µg/mL)
MFC:MIC Ratio [16]: 1
fungicidal or fungistatic (MFC/MIC ratio) [16]: fungicidal (When the MFC/MIC ratio of a hit drug was 1 or 2, the substance was considered fungicidal)
MFC ([16]; Fonsecaea pedrosoi, read-out: MFC): 5 µM (≈ 1.01 µg/mL)
MFC:MIC Ratio [17]: 4
MFC ([17]; Phialophora verrucosa, read-out: MFC): 20 µM (≈ 4.03 µg/mL)
MFC:MIC Ratio [18]: 4
MFC ([18]; read-out: MFC): 40 µM (≈ 8.05 µg/mL)

Compound: CCC(C)n1ncn(-c2ccc(N3CCN(c4ccc(OCC5COC(Cn6cncn6)(c6ccc(Cl)cc6Cl)O5)cc4)CC3)cc2)c1=O (centres unmarked) [itraconazole]
inhibition at 10 µM [1]: 100%

Compound: Cc1cccc2sc3nncn3c12 [tricyclazole]
melanin production [19]: changes the color of colonies from dark green, gray or black (due to melanin) to reddish brown
melanin production [20]: changes the color of colonies from dark green, gray or black (due to melanin) to reddish brown
melanin production [21]: changes the color of colonies from dark green, gray or black (due to melanin) to reddish brown

Compound: Medroxyprogesterone
% Growth Inhibition [1]: 91%
